# Reference: patent US20210120808A1, “Methods and Systems for Synergistic Continuity Approaches to Treatment and Preservation of Biological Cells” (Membrane Protective Technologies, Inc., priority 2017, published 2021)
# Marks after values point to notes of the source that are not given here.
# Test system: phospholipase A2
# Assay: Egg yolk coagulation by goat seminal plasma in lactose yolk extender, image analysis with ImageJ
# Format: biochemical
# Description: An egg yolk extender was prepared substituting lactose (Trizma base 131.5 mM, Lactose 73 mM 40% v:v egg yolk), without citric acid and pH was adjusted to a standard extender pH of 7. Semen from […] was collected using an artificial vagina. The ejaculate was centrifuged for 5 min at 1000×g. The supernatant (seminal plasma) was removed, then 1 part seminal plasma was added to 1 part extender to create a 20% yolk solution. Extender was either lactose yolk extender alone or lactose yolk extender modified to contain the phospholipase inhibitor curcumin as found in Sea Buckthorn (see Gupta et al. Molecular and Cellular biochemistry October 2006 290:193, hereby incorporated by reference). Representative pictures were taken of each solution, then the 22° C. solutions of seminal plasma plus the various extenders were frozen to −80° C. and allowed to remain frozen for >24 hrs. Samples were thawed by incubation in 37° C. water bath for 1 minute, then representative pictures were taken. For each picture, the negative space (the white area visible between droplets) was measured using ImageJ software by adjusting the image threshold using “Auto” setting then analyzing particle size (see Rasband, W. S., ImageJ, U.S. National Institutes of Health, Bethesda, Md., USA, https://imagej.nih.gov/ij/, 1997-2018, hereby incorporated by reference). The mean particle size was recorded and the images were analyzed in triplicate. […] The left column is a non-limiting example of a pictorial representation of the lactose yolk solution without seminal plasma (control) pre-freezing and post-freezing. One observes that there is no significant change in the size of the egg yolk lipid droplets, and no coagulation has occurred.
smiles,measurement,setting,value
COc1cc(/C=C/C(=O)CC(=O)/C=C/c2ccc(O)c(OC)c2)ccc1O [curcumin],coagulation of egg yolk particles compared to Control,"area of coagulation, seminal plasma with vs without inhibitor, FIG. 8",statically significant decrease
same,Post-Thaw Area,"frozen to −80° C. >24 hrs, thawed at 37° C., single pygmy buck, p < 0.05",35.6* pixel^2
same,Pre-Freeze Area,"goat seminal plasma plus lactose yolk extender, 0.2% curcumin, single pygmy buck, p < 0.05",26.3* pixel^2
same,pre-freeze coagulation,pre-freeze seminal plasma with 0.2% plant-derived curcumin vs without curcumin,less coagulated
same,Coagulation rank,"single pygmy buck, untreated seminal plasma ranks 2",1
